Legend:
Interleukin 1β (IL-1β) = assay: In vitro model of human inflammation: ELISA of IL-1β in supernatants; format: cell-based; details: 300 μM; full inflammation (4 h and 14 h); one donor
Protocol: (§1) FIG. 16—Glycerophosphoinositol inhibits the release of cytokines. Human monocytes were purified from one donor and treated according to the in vitro model of human inflammation, previously described, in absence (blue line) or in presence (red line) of 300 μM glycerophosphoinositol. In detail, glycerophosphoinositol was added to cultured cells 20 minutes before LPS, IL-10 and TGF-β, that is, again after each wash. The growth medium was collected at time 4 h, 14 h, 24 h, 48 h; growth medium from freshly isolated monocytes was considered as control at time 0 h. The levels of cytokines Interleukin 1β (IL-1β), Tumor necrosis factor α (TNFα) and Interleukin-6 (IL-6) in the supernatants were measured by enzyme-linked immunosorbent assay (ELISA kit, R&D System) according to manufacturer's protocol. An increased release of these cytokines was observed during the full inflammation (time 4 h and 14 h) as expected. […]
(§2) Extracellular levels of IL-1β, TNFα and IL-6 were measured by enzyme-linked immunosorbent assay (ELISA) from R&D System. […] Then the recovered supernatants were loaded onto plates according to manufacturer's protocol and the concentration of the protein was assessed spectrophotometrically.

TNFα = assay: ELISA of TNFα in medium of LPS-stimulated monocytes; format: cell-based, human; details: 300 μM
Protocol: FIG. 5—The inhibitory effects of GroPIns are also evident at the protein expression level. Purified monocytes (4×10^3 cells/sample) were pre-incubated for 20 min at 37° C. in the absence and presence of 300 μM GroPIns, and then for a further 5 h and 24 h without or with 0.1 μg/ml LPS from E. coli. At the end of this incubation, the levels of TNFα, IL-1β and TxB-2 in the medium were assessed by ELISA. In monocytes alone, the protein concentrations were under the assay detection limits at both the times. The data are representative of three independent experiments performed with cells from different donors. Exposure of monocytes to LPS induced a time-dependent increase in the […] levels of all of the cytokines analysed.
Cellular levels of TNFα, IL-1β and TxB-2 were quantified by enzyme-linked immunosorbent assay (ELISA). Conditioned medium from monocytes was sedimented by centrifugation at 300×g at room temperature for 10 min to eliminate cellular debris. Then, the supernatant was recovered and the concentrations of TNFα, IL-1β and TxB-2 were assessed by ELISA, as specified by the manufacturers (Amersham Pharmacia Biotech (NJ, USA).

[1] = test system: inhibitor of kB, α (IκB-α) gene expression; assay: In vitro model of human inflammation: real-time PCR of IκB-α; format: cell-based; details: 300 μM; 4 h, 14 h, 24 h, 48 h; one donor, preliminary
Protocol: (§3) FIG. 15—Glycerophosphoinositol modulates the kinetic transcriptional profile of genes involved in the regulation of inflammatory response. Human monocytes were purified from one donor and treated according to the in vitro model of human inflammation, previously described, in absence (blue line) or in presence (red line) of 300 μM glycerophosphoinositol. In detail glycerophosphoinositol was added to cells in culture 20 minutes before LPS, IL-10 and TGF-β, that is, again after each wash. Samples were collected at time 4 h, 14 h, 24 h, 48 h; freshly isolated monocytes have been considered as control at time 0 h. Total RNA was extracted from cells by RNeasy kit (Qiagen) and reverse-transcribed to cDNA (QuantiTect Reverse Transcription kit, Qiagen). […] Each sample was measured in triplicate and data were analyzed with Pfaffl methods for comparing relative expression data. The measurement of mRNA expression was expressed as fold-increase over control (time 0 h). […]
(§4) Total RNA was extracted with RNeasy kit (Qiagen) according to the manufacturer's instructions. Both integrity and quality of total RNA were checked by agarose gel electrophoresis and the concentration of each RNA sample was assessed spectrophotometrically. Total RNAs were reverse-transcribed to cDNA (QuantiTect Reverse Transcription kit, Qiagen) with oligo-dT and random primers, according to manufacturer's protocol. […]

[2] = test system: interleukin 1β (IL-1β) gene expression; assay: In vitro model of human inflammation: real-time PCR of IL-1β; format: cell-based; details: 300 μM; 4 h, 14 h, 24 h, 48 h; effect mainly at 4 h and 14 h; one donor, preliminary
Protocol: as §3, §4

Interleukin-6 (IL-6) = assay: In vitro model of human inflammation: ELISA of IL-6 in supernatants; format: cell-based; details: 300 μM; full inflammation (4 h and 14 h); one donor
Protocol: as §1, §2

[3] = test system: Interleukin-1 receptor α (IL-1Rα) gene expression; assay: In vitro model of human inflammation: real-time PCR of IL-1Rα; format: cell-based; details: 300 μM; 4 h, 14 h, 24 h, 48 h; one donor, preliminary
Protocol: as §3, §4

[4] = test system: cyclooxygenase 2 (COX-2) gene expression; assay: In vitro model of human inflammation: real-time PCR of COX-2; format: cell-based; details: 300 μM; 4 h, 14 h, 24 h, 48 h; effect mainly at 4 h and 14 h; one donor, preliminary
Protocol: as §3, §4

[5] = test system: Tumor necrosis factor α (TNFα); assay: In vitro model of human inflammation: ELISA of TNFα in supernatants; format: cell-based; details: 300 μM; full inflammation (4 h and 14 h); one donor
Protocol: as §1, §2

O=P(O)(OCC(O)CO)OC1C(O)C(O)C(O)C(O)C1O (stereo not drawn) [GroPIns, glycerophosphoinositol]
amount of IL-1β in the supernatants (Interleukin 1β (IL-1β)): significantly reduced the amount of these cytokines in the supernatants
level of TNFα in the medium (TNFα; 0.1 μg/ml LPS for 5 h): very small effects
level of TNFα in the medium (TNFα; 0.1 μg/ml LPS for 24 h): significantly reduced
IκB-α mRNA expression [1]: affected the expression of IκB-α
IL-1β mRNA expression [2]: hampered the expression
amount of IL-6 in the supernatants (Interleukin-6 (IL-6)): significantly reduced the amount of these cytokines in the supernatants
IL-1Rα mRNA expression [3]: favoured the expression
COX-2 mRNA expression [4]: hampered the expression
amount of TNFα in the supernatants [5]: significantly reduced the amount of these cytokines in the supernatants
